Where a SMILES comes first, the peptide text is derived from it. Where no end group is shown, it is not given here.
Experiments:
[1] = test system: CT26 cancer cells in which CAGE expression was induced; experiment: Anticancer efficacy of compound and anti-PD-1, alone or combined, in syngeneic mouse model; format: in vivo; details: for absolute weight of the tumor: tumor removed on day 15, compound 10 mpk i.v. every 2 days, anti-PD-1 10 mg/kg i.p. every 3 days; for tumor volume (tumor growth): vs control, compound 10 mpk intravenously every 2 days, anti-PD-1 10 mg/kg intraperitoneally every 3 days, up to day 15
Method: (§1) CT26 cancer cells in which CAGE expression was induced were mixed with Matrigel in a ratio of 1:1, and 200 μL of the cell mixture was injected into a female BALB/c mouse at a concentration of 1×10^6 cells/mouse to produce a syngeneic mouse model. After cell inoculation was completed, when the volume of the formed tumor reached 70 to 120 mm^3, groups were randomly separated and drug administration was performed. A cancer immunotherapy drug (anti-PD-1) was intraperitoneally administered at intervals of 3 days at a concentration of 10 mg/kg (mpk), and the compounds according to the present invention, AQTGTGKT, 3-PhPh-AQTGTGKT, and naphthyl-AQTGTGKT, were administered intravenously at intervals of 2 days at a concentration of 10 mpk. The size of the tumor was measured twice a week to calculate a tumor volume, and the weight of a subject was also measured. On day 15 after the start of administration, the tumor was removed, and the absolute weight was measured.

[2] = test system: CT26 cells in which CAGE expression was induced; experiment: Histological analysis of tumor tissue by H&E staining; format: in vivo, mouse; details: single or combined administration; FIG. 11A
Method: (§2) After administering the cancer immunotherapy drug and the compound of the present invention alone or in combination to a syngeneic mouse model produced using CT26 cells in which CAGE expression was induced, tumor tissue was isolated from each subject. The obtained tumor tissue was made into a paraffin block and then sectioned, and histological analysis was performed by performing H&E staining and microscopic observation on tissue slides. […] Fluorescent images were taken at 20× magnification using a confocal microscope, and the number of T cells and macrophages (M2- and M1-type macrophages) on the entire screen was then measured and analyzed.

[3] = test system: T cells or macrophages; format: in vivo, mouse
Method: as §2

[4] = test system: CXCL10; experiment: CXCL10 mRNA expression in tumor tissue by real-time PCR; format: in vivo, mouse; details: relative to control, 2^-ΔΔCt method; FIG. 12
Method: After administering the cancer immunotherapy drug and the compound of the present invention alone or in combination to a syngeneic mouse model produced using CT26 cells in which CAGE expression was induced, tumor tissue was isolated from each subject. RNA was extracted from the obtained tumor tissue, cDNA was synthesized, and then an mRNA expression level of the CXCL10 gene was measured through real-time PCR. For each mRNA, a relative expression level compared to the control was calculated through the 2^−ΔΔ^Ct method.

[5] = test system: CT26 cancer cells in which CAGE expression was induced; experiment: Anticancer efficacy of 3-PhPh-AQTGTGKT and anti-CTLA4, alone or combined, in syngeneic mouse model; format: in vivo; details: 3-PhPh-AQTGTGKT 10 mpk i.v. every 2 days, anti-CTLA4 5 mpk i.p. every 3 days
Method: as §1, with “(anti-CTLA4)” for “(anti-PD-1)”, “5 mpk,” for “10 mg/kg (mpk),”, “compound of” for “compounds according to”, “invention (3-PhPh-AQTGTGKT) was intravenously” for “invention, AQTGTGKT, 3-PhPh-AQTGTGKT, and naphthyl-AQTGTGKT, were”, “administered” for “administered intravenously”

[6] = test system: CT26 cancer cells in which CAGE expression was induced; experiment: Overall survival (OS) period, Kaplan Meier analysis, syngeneic mouse model; format: in vivo; details: for 39 days, 3-PhPh-AQTGTGKT 10 mpk i.v. every 2 days, anti-CTLA4 5 mpk, anti-PD-1 10 mpk every 3 days
Method: Next, an overall survival (OS) period according to the single or combined administration of the compound of the present invention and the cancer immunotherapy drug was compared. CT26 cancer cells in which CAGE expression was induced were mixed with Matrigel in a ratio of 1:1, and 200 μL of the cell mixture was injected into a female BALB/c mouse at a concentration of 1×10^6 cells/mouse to produce a syngeneic mouse model. After cell inoculation was completed, when the volume of the formed tumor reached 70 to 120 mm^3, groups were randomly separated and drug administration was performed. The cancer immunotherapy drug (anti-CTLA4) was administered at intervals of 3 days at a concentration of 5 mpk, and the compound of the present invention (3-PhPh-AQTGTGKT) was intravenously administered at intervals of 2 days at a concentration of 10 mpk, and the survival rate of the subjects was analyzed using Kaplan Meier analysis.
Subsequently, the effect of the coadministration of the compound of the present invention and a different cancer immunotherapy drug on the survival rate of subjects was confirmed. CT26 cancer cells in which CAGE expression was induced were mixed with Matrigel in a ratio of 1:1, and 200 μL of the cell mixture was injected into a female BALB/c mouse at a concentration of 1×10^6 cells/mouse to produce a syngeneic mouse model. […]

Row | Compound | absolute weight of the tumor [1] | tumor volume (tumor growth) [1] | tumor cell death in tumor tissue (H&E staining) [2] | frequency of M2 macrophages (CD206) in tumor tissue ([3]; FIG. 11C) | frequency of total macrophages (F4/80) in tumor tissue ([3]; FIG. 11C) | frequency of cytotoxic T cells (CD8 T cells) in tumor tissue ([3]; mouse, in vivo) | frequency of total T cells (CD4 T cells) in tumor tissue ([3]; vs control or single administration groups, FIG. 11B) | CXCL10 mRNA expression level in tumor tissue [4] | tumor growth (tumor volume) ([5]; from day 11) | absolute weight of the tumor ([5]; tumor removed on day 15) | subjects survived ([6]; of 10 subjects, control 2 survived) | subjects died ([6]; control 8 died)
1 | AQTGTGKT [AQTGTGKT] | no significant difference between the tumor weight | no significant difference in tumor volume | – | – | – | – | – | – | – | – | – | –
2 | C[C@H](NC(=O)c1cccc(-c2ccccc2)c1)C(=O)N[C@@H](CCC(N)=O)C(=O)N[C@H](C(=O)NCC(=O)N[C@H](C(=O)NCC(=O)N[C@@H](CCCCN)C(=O)N[C@H](C(=O)O)[C@@H](C)O)[C@@H](C)O)[C@@H](C)O [3-PhPh-AQTGTGKT] (HELM PEPTIDE1{[O=C(c1cccc(-c2ccccc2)c1)[*:2]].A.Q.T.G.T.G.K.T}$$$$V2.0) | lower than that of the control | tumor growth began to decrease compared to the control | some areas where tumor cells were killed were observed | no significant difference between the frequencies of macrophages | no significant difference between the frequencies of macrophages | no significant differences in the frequency of immune cells | no significant differences in the frequency of immune cells | similar | statistically significant decrease in tumor growth | lower than that of the control | 3 | 7 out of 10 subjects
3 | C[C@H](NC(=O)c1ccc2ccccc2c1)C(=O)N[C@@H](CCC(N)=O)C(=O)N[C@H](C(=O)NCC(=O)N[C@H](C(=O)NCC(=O)N[C@@H](CCCCN)C(=O)N[C@H](C(=O)O)[C@@H](C)O)[C@@H](C)O)[C@@H](C)O [naphthyl-AQTGTGKT, Naphthyl-AQTGTGKT] (HELM PEPTIDE1{[O=C(c1ccc2ccccc2c1)[*:2]].A.Q.T.G.T.G.K.T}$$$$V2.0) | no significant difference between the tumor weight | no significant difference in tumor volume | – | – | – | – | – | – | – | – | – | –

Reference: patent US20250213645A1, “PHARMACEUTICAL COMPOSITION FOR MODULATING IMMUNE RESPONSE” (L-BASE CO., LTD., priority 2021, published 2025)
